Data published in US10125098B2, “Therapeutic compounds and methods of use thereof” (GENENTECH, INC., priority 2014, dated 2018).
Read-outs that look alike come from different tables or passages of the source.

Tests used:
NaV1.5 = molecular target: T1, NaV1.5 (Homo sapiens, UniProt Q14524); assay: Patch voltage clamp electrophysiology assay (EP), NaV1.5; type: cell-based; conditions: HEK-293 cells stably expressing NaV1.5 with β1 subunit, whole-cell patch clamp, membrane potential −60 mV (inactivated state)
T1 construct: permanently transfected with an expression vector containing the full-length cDNA coding for the desired human sodium channel α-subunit; expressed in transfected cells; host or cells: HEK-293
Outline: (§1)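 Percent block is the drop in sodium current after compound wash-on, measured by a test pulse following 20 ms at −150 mV from a −60 mV inactivating holding potential.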

human NaV1.7 = molecular target: T2, human NaV1.7 (Homo sapiens, UniProt Q15858); assay: Patch voltage clamp electrophysiology assay (EP), NaV1.7; type: cell-based; conditions: HEK-293 cells stably expressing NaV1.7 with β1 subunit; whole-cell patch clamp, membrane potential −60 mV (inactivated state)
T2 construct: permanently transfected with an expression vector containing the full-length cDNA coding for the desired human sodium channel α-subunit; expressed in transfected cells; host or cells: HEK-293
Outline: as §1

hNav1.7 = molecular target: T3, hNav1.7 (Homo sapiens, UniProt Q15858); assay: Tritiated compound binding (LBA) to membranes from cells expressing hNav1.7 and the β1 subunit, competitive binding; conditions: competitive binding vs 100 pM [3H]compound, 18 h, room temperature, membranes with hNav1.7 and β1 subunit
T3 construct: expressed in transfected cells
Outline: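 Competitive displacement of 100 pM [3H]compound (tritiated methyl analogue of formula (I)) from hNav1.7/β1 membranes, 18 h at room temperature in NaCl/Tris pH 7.4 buffer containing 0.01% BSA. 1 μM unlabeled compound set non-specific binding. Bound label quantified by scintillation after filtration; 4-parameter fit gave IC50.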

[1] = human, HEK-293 cells stably expressing human NaV1.5 with β1 subunit, pH 7.4

T1 sequence (Q14524 whole entry): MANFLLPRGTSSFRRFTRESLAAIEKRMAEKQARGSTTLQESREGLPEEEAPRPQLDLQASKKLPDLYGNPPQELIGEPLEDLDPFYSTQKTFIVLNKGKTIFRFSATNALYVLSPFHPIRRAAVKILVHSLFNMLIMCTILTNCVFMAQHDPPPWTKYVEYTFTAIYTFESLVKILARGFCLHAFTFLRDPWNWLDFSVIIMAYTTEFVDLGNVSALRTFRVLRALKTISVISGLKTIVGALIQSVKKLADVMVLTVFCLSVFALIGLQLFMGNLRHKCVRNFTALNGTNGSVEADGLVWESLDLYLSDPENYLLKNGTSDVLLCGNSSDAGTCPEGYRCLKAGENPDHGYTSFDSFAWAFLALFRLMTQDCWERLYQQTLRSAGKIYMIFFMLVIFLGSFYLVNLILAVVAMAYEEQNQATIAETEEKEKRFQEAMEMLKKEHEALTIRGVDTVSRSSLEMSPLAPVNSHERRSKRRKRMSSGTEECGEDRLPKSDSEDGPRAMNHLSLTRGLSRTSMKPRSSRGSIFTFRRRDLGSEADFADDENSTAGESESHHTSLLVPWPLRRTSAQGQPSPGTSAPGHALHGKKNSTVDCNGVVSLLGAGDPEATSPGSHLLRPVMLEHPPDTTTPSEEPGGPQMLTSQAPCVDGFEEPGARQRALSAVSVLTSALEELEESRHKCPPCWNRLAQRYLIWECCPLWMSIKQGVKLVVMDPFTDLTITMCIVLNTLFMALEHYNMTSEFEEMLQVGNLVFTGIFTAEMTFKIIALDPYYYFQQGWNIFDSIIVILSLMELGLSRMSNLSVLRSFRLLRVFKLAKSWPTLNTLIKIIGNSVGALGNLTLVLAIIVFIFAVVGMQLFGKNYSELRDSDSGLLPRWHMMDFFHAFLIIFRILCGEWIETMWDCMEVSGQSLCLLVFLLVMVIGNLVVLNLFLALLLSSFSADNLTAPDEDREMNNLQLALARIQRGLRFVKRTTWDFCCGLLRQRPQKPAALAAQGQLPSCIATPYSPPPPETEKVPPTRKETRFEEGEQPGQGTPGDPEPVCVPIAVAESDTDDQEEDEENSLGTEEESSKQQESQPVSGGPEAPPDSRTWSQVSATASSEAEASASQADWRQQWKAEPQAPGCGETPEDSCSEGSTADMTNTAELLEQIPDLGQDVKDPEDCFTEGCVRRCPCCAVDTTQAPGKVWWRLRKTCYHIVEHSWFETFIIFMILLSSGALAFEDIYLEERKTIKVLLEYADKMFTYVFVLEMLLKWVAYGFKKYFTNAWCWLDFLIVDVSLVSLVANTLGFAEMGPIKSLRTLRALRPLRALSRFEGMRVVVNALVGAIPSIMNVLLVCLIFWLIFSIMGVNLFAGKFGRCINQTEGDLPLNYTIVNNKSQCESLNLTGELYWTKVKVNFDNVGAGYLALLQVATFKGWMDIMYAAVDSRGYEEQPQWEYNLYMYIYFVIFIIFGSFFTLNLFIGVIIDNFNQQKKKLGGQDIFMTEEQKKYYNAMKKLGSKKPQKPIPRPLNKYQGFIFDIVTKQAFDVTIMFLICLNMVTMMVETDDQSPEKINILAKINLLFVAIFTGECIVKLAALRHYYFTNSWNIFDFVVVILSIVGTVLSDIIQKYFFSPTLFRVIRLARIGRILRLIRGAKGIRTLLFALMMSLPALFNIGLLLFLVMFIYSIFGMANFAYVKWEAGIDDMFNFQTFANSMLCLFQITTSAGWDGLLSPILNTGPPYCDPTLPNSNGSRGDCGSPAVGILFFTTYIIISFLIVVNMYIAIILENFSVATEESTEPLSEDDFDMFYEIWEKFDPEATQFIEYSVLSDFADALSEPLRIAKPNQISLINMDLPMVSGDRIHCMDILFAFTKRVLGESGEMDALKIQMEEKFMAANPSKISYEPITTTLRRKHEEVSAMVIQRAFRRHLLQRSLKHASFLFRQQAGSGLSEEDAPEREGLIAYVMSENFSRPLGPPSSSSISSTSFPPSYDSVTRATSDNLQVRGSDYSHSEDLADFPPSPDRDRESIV
T3 sequence (Q15858 1-1977 isoform Q15858-3): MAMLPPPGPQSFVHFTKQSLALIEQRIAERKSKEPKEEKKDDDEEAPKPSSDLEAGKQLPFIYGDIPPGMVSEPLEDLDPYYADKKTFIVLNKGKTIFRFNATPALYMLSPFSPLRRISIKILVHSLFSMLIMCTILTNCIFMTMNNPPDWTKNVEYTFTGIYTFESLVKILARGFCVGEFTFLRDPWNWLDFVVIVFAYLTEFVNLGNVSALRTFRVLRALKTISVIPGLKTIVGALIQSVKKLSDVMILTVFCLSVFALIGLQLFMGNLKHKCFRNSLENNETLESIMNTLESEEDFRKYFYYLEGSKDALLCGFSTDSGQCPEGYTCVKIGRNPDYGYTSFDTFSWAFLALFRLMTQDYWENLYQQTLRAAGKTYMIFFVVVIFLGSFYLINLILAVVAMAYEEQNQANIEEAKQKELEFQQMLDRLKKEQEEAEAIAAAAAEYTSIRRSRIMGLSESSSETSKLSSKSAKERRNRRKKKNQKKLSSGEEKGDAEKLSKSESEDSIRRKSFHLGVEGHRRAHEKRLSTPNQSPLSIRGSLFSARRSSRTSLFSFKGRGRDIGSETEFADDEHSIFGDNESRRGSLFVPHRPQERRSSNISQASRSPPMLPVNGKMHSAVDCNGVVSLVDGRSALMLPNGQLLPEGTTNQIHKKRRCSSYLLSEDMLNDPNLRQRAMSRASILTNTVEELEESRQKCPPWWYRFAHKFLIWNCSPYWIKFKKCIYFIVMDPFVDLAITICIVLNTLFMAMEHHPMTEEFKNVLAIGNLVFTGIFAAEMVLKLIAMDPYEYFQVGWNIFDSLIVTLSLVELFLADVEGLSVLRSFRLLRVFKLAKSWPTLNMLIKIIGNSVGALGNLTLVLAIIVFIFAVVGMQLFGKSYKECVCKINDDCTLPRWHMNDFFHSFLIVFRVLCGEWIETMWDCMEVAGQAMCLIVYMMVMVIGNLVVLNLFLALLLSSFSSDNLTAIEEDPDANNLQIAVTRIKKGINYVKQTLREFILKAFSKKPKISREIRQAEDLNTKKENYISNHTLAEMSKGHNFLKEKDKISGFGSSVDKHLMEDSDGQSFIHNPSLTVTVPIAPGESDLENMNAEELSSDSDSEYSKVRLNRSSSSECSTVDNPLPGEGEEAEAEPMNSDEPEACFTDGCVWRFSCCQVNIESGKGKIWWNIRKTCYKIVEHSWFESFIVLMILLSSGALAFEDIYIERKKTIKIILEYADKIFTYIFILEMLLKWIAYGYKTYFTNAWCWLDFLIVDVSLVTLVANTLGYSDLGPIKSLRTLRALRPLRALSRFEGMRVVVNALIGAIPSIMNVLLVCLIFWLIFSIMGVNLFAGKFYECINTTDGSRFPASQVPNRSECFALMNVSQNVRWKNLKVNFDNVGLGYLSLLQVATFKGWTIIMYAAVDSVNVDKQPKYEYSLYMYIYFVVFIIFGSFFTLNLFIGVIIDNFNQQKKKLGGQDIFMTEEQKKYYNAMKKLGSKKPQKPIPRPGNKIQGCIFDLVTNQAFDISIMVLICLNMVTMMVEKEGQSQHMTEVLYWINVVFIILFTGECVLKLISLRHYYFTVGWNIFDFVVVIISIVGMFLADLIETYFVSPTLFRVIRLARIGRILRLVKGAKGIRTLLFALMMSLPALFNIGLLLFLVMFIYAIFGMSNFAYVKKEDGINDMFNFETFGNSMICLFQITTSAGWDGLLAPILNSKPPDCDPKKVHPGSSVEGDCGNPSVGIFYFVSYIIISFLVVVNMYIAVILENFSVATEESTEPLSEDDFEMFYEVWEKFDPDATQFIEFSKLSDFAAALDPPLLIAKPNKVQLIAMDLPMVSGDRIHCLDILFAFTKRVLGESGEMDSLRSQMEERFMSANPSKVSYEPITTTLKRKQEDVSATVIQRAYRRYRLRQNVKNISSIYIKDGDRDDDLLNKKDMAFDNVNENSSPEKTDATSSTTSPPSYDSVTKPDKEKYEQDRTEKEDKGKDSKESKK
T3 sequence (Q07699 19-218 partner): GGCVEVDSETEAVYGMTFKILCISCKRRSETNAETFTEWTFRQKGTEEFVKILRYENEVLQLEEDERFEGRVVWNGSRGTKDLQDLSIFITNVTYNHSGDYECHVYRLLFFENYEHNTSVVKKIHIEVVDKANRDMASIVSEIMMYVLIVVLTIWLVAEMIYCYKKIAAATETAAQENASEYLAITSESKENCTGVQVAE
T2 sequence (Q15858 1-1977 isoform Q15858-3): as the sequence (Q15858 1-1977 isoform Q15858-3) above
T2 sequence (Q07699 19-218 partner): as the sequence (Q07699 19-218 partner) above

Row | SMILES | IC50 (NaV1.5; [1]) | IC50 (human NaV1.7) | IC50 (hNav1.7) | IC50 (NaV1.5; read-out: Nav1.5)
1 | CC(c1ccc(Cl)cc1Cl)N1CCC(COc2cc(F)c(C(=O)N3C[C@H](F)C[C@H]3C(=O)O)cc2C2CC2)CC1 (stereo partly drawn) [Example 174] | ≥ 30 µM | 0.34 µM | 0.026 µM | –
2 | O=C(O)[C@@H]1C[C@@H](F)CN1C(=O)c1cc(C2CC2)c(OCC2CCN(Cc3ccc(Cl)c(Cl)c3)CC2)cc1F [Example 175, (2S,4R)-1-(5-cyclopropyl-4-((1-(3,4-dichlorobenzyl)piperidin-4-yl)methoxy)-2-fluorobenzoyl)-4-fluoropyrrolidine-2-carboxylic acid] | ≥ 30 µM | 1.2 µM | 0.11 µM | –
3 | O=C(c1cc(C2CC2)c(OCC23CC4CC(CC(C4)C2)C3)cc1F)N1CC2CC1(C(=O)O)C2 [Example 176, 3-[4-(1-adamantylmethoxy)-5-cyclopropyl-2-fluoro-benzoyl]-3-azabicyclo[2.1.1]hexane-4-carboxylic acid] | – | 1.3 µM | 0.36 µM | 7.2 µM
4 | COc1ncccc1-c1cc(C(=O)N2CCC[C@H]2C(=O)O)c(F)cc1Oc1cnc(OC(C)C)c(Cl)c1 [Example 179, (S)-1-(4-((5-chloro-6-isopropoxypyridin-3-yl)oxy)-2-fluoro-5-(2-methoxypyridin-3-yl)benzoyl)pyrrolidine-2-carboxylic acid] | ≥ 30 µM | 0.83 µM | 0.4 µM | –
5 | O=C(O)[C@@H]1CCCN1C(=O)c1cc(Cl)c(COc2cnc(OCC(F)(F)C(F)F)c(Cl)c2)cc1F [Example 180, (S)-1-(5-chloro-4-(((5-chloro-6-(2,2,3,3-tetrafluoropropoxy)pyridin-3-yl)oxy)methyl)-2-fluorobenzoyl)pyrrolidine-2-carboxylic acid] | ≥ 30 µM | 1.4 µM | 0.83 µM | –
6 | O=C(O)[C@@H]1CCCN1C(=O)c1cc(C2CC2)c(OCC2CCN(Cc3cc(Cl)ccc3C(F)(F)F)CC2)cc1F [Example 181, (S)-1-(4-((1-(5-chloro-2-(trifluoromethyl)benzyl)piperidin-4-yl)methoxy)-5-cyclopropyl-2-fluorobenzoyl)pyrrolidine-2-carboxylic acid] | ≥ 30 µM | 0.23 µM | 0.05 µM | –
7 | O=C(O)[C@@H]1CCCN1C(=O)c1cc(C2CC2)c(COc2cc(Cl)cc(OC(F)(F)F)c2)cc1F [Example 182, (S)-1-(4-((3-chloro-5-(trifluoromethoxy)phenoxy)methyl)-5-cyclopropyl-2-fluorobenzoyl)pyrrolidine-2-carboxylic acid] | – | 0.22 µM | 0.032 µM | 25 µM
8 | CC(C)[C@H](NC(=O)c1cc(C2CC2)c(COc2cc(Cl)cc(OC(F)(F)F)c2)cc1F)C(=O)O [Example 183, (S)-2-(4-((3-chloro-5-(trifluoromethoxy)phenoxy)methyl)-5-cyclopropyl-2-fluorobenzamido)-3-methylbutanoic acid] | – | 1.9 µM | 0.031 µM | 9.2 µM
9 | O=C(O)[C@@H]1CCCN1C(=O)c1cc(C2CC2)c(COc2cnc(OCC(F)(F)C(F)F)c(C3CC3)c2)cc1F [Example 184, (S)-1-(5-cyclopropyl-4-(((5-cyclopropyl-6-(2,2,3,3-tetrafluoropropoxy)pyridin-3-yl)oxy)methyl)-2-fluorobenzoyl)pyrrolidine-2-carboxylic acid] | – | 1.3 µM | 0.46 µM | 23 µM
10 | CC(C)COc1ncc(Oc2cc(F)c(C(=O)N[C@H](C(=O)O)C(C)C)cc2Cl)cc1Cl [Example 185, (S)-2-(5-chloro-4-((5-chloro-6-isobutoxypyridin-3-yl)oxy)-2-fluorobenzamido)-3-methylbutanoic acid] | – | 9.6 µM | 0.1 µM | 17 µM
11 | CC[C@@H](C)[C@H](NC(=O)c1cc(Cl)c(Oc2cnc(OCC(C)C)c(Cl)c2)cc1F)C(=O)O [Example 186, (2S,3R)-2-(5-chloro-4-((5-chloro-6-isobutoxypyridin-3-yl)oxy)-2-fluorobenzamido)-3-methylpentanoic acid] | – | 8.3 µM | 0.35 µM | 12 µM
